Assay results: patent US12606528B2, “Methods and materials for inhibiting NF-kB activity” (University of Pittsburgh - Of the Commonwealth System of …, priority 2019, dated 2026)
Read-outs that look alike come from different tables or passages of the source.

Tests used:
[1] = system: NF-κB; assay: NF-κB assay: THP1-NF-κB-LUC cells, LPS-stimulated secreted luciferase; type: cell-based; details: THP1-NF-κB-LUC cells, read-out: IC50 (NF-κB assay)
How it was run: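 THP1-NF-κB-LUC cells (25k/well) were pretreated with compounds for 2 h, then stimulated with LPS (10 ng/mL) for 18 h. Secreted luciferase was measured and normalized to vehicle, and IC50 was fitted from the concentration series.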

[2] = system: TNF release; assay: TNF assay: TNF release from LPS-stimulated human PBMCs (TNF ELISA); type: cell-based; details: PBMC, read-out: IC50 (TNF assay)
How it was run: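 Human PBMCs at 10k/well pretreated with compound dilutions 2 h, then stimulated with LPS (10 ng/mL) for 18 h. TNF in supernatants quantified by ELISA; IC50 for inhibition of TNF release fitted from concentration–response.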

[3] = compounds 2 hours before LPS (10 ng/mL) for 18 hours, secreted luciferase
[4] = human PBMCs, compounds 2 hours before LPS (10 ng/ml) for 18 hours, supernatant TNF ELISA

| IC50 [1, 3] [nM] | IC50 [2, 4] [nM] | IC50 ([1]; LPS-stimulated) [nM] | IC50 ([2]; LPS-stimulated human PBMCs, TNF ELISA) [nM] | Structure (SMILES) |
| --- | --- | --- | --- | --- |
| 1000 to 10000 | > 10000 |  |  | CC1Oc2cc(S(=O)(=O)Nc3ccc(Cl)cc3)c(Br)cc2N(C)C1=O (stereo not drawn) [BC19792] |
| < 100 | > 10000 |  |  | CC1Oc2c(cc(Br)cc2S(=O)(=O)Nc2ccc(C(C)C)cc2)N(C)C1=O (stereo not drawn) [BC19793] |
| 1000 to 10000 | > 10000 |  |  | CC1Oc2cc(S(=O)(=O)Nc3ccc(C(C)C)cc3)c(Br)cc2N(C)C1=O (stereo not drawn) [BC19794] |
| > 10000 | 1000 to 10000 |  |  | COc1ccc(NS(=O)(=O)c2cc3c(cc2Br)N(C)C(=O)C(C)O3)cc1 (stereo not drawn) [BC19795] |
| < 100 | 1000 to 10000 |  |  | Cc1ccc(NS(=O)(=O)c2cc(Br)cc3c2OC(C)C(=O)N3C)cc1Cl (stereo not drawn) [BC19796] |
| 1000 to 10000 | 1000 to 10000 |  |  | Cc1ccc(NS(=O)(=O)c2cc3c(cc2Br)N(C)C(=O)C(C)O3)cc1Cl (stereo not drawn) [BC19797] |
| < 100 | 1000 to 10000 |  |  | CC1Oc2c(cc(Br)cc2S(=O)(=O)Nc2ccc(F)cc2F)N(C)C1=O (stereo not drawn) [BC19798] |
| 100 to 1000 | 1000 to 10000 |  |  | CC1Oc2cc(S(=O)(=O)Nc3ccc(F)cc3F)c(Br)cc2N(C)C1=O (stereo not drawn) [BC19799] |
| 100 to 1000 | > 10000 |  |  | CCc1cccc(NS(=O)(=O)c2cc(Br)cc3c2OC(C)C(=O)N3C)c1 (stereo not drawn) [BC19900] |
| 1000 to 10000 | > 10000 |  |  | CCc1cccc(NS(=O)(=O)c2cc3c(cc2Br)N(C)C(=O)C(C)O3)c1 (stereo not drawn) [BC19901] |
| < 100 | > 10000 |  |  | CC1Oc2c(cc(Br)cc2S(=O)(=O)Nc2cccc(F)c2)N(C)C1=O (stereo not drawn) [BC19902] |
| 100 to 1000 | > 10000 |  |  | CC1Oc2cc(S(=O)(=O)Nc3cccc(F)c3)c(Br)cc2N(C)C1=O (stereo not drawn) [BC19903] |
| < 100 | > 10000 |  |  | CC1Oc2c(cc(Br)cc2S(=O)(=O)Nc2cccc(Cl)c2)N(C)C1=O (stereo not drawn) [BC19904] |
| 1000 to 10000 | > 10000 |  |  | CC1Oc2cc(S(=O)(=O)Nc3cccc(Cl)c3)c(Br)cc2N(C)C1=O (stereo not drawn) [BC19905] |
| < 100 | 1000 to 10000 |  |  | Cc1ccc(NS(=O)(=O)c2cc(Br)cc3c2OC(C)C(=O)N3C)cc1 (stereo not drawn) [BC19906] |
| > 10000 | > 10000 |  |  | CC1Oc2cc(S(=O)(=O)Nc3ccc(F)cc3Cl)c(Br)cc2N(C)C1=O (stereo not drawn) [BC19907] |
| < 100 | > 10000 |  |  | CC1Oc2c(cc(Br)cc2S(=O)(=O)Nc2ccc(F)cc2Cl)N(C)C1=O (stereo not drawn) [BC19908] |
| > 10000 | > 10000 |  |  | COc1ccc(NS(=O)(=O)c2cc(Br)cc3c2OC(C)C(=O)N3C)cc1Cl (stereo not drawn) [BC19909] |
| 1000 to 10000 | > 10000 |  |  | CC1Oc2cc(S(=O)(=O)Nc3ccc(F)cc3)c(Br)cc2N(C)C1=O (stereo not drawn) [BC19910] |
| < 100 | > 10000 |  |  | CC1Oc2c(cc(Br)cc2S(=O)(=O)Nc2ccc(F)cc2)N(C)C1=O (stereo not drawn) [BC19911] |
| > 10000 | > 10000 |  |  | Cc1ccc(NS(=O)(=O)c2cc3c(cc2Br)N(C)C(=O)C(C)O3)cc1 (stereo not drawn) [BC19912] |
| < 100 | > 10000 |  |  | CCC1Oc2c(cc(Br)cc2S(=O)(=O)Nc2ccc(F)cc2F)N(C)C1=O (stereo not drawn) [BC19913] |
| 100 to 1000 | > 10000 |  |  | CCC1Oc2cc(S(=O)(=O)Nc3ccc(F)cc3F)c(Br)cc2N(C)C1=O (stereo not drawn) [BC19914] |
| < 100 | > 10000 |  |  | CCc1cccc(NS(=O)(=O)c2cc(Br)cc3c2OC(CC)C(=O)N3C)c1 (stereo not drawn) [BC19915] |

| IC50 [1, 3] [nM] | IC50 [2, 4] [nM] | IC50 ([1]; LPS-stimulated) [nM] | IC50 ([2]; LPS-stimulated human PBMCs, TNF ELISA) [nM] | Structure (SMILES) |
| --- | --- | --- | --- | --- |
| 1000 to 10000 | > 10000 |  |  | CCc1cccc(NS(=O)(=O)c2cc3c(cc2Br)N(C)C(=O)C(CC)O3)c1 (stereo not drawn) [BC19916] |
|  |  | > 10000 | > 10000 | O=C(O)c1cc2c(c(NS(=O)(=O)c3ccc(F)c(F)c3)c1)N1CCCC1C(=O)N2 (stereo not drawn) [BC19917] |
| > 10000 | > 10000 |  |  | COc1ccc(NS(=O)(=O)c2cc3c(cc2Br)N(C)C(=O)C(C)O3)cc1Cl (stereo not drawn) [BC19919] |
| 100 to 1000 | > 10000 |  |  | CC1Oc2cc(S(=O)(=O)Nc3ccc(C#N)cc3)c(Br)cc2N(C)C1=O (stereo not drawn) [BC19920] |
| < 100 | 1000 to 10000 |  |  | CCC1Oc2c(cc(Br)cc2S(=O)(=O)Nc2ccc(OC(F)(F)F)cc2)N(C)C1=O (stereo not drawn) [BC19921] |
| < 100 | > 10000 |  |  | CCC1Oc2cc(S(=O)(=O)Nc3ccc(OC(F)(F)F)cc3)c(Br)cc2N(C)C1=O (stereo not drawn) [BC19922] |
| < 100 | 1000 to 10000 |  |  | CCC1Oc2c(cc(Br)cc2S(=O)(=O)Nc2ccc(C)c(F)c2)N(C)C1=O (stereo not drawn) [BC19923] |
| < 100 | 1000 to 10000 |  |  | CCC1Oc2cc(S(=O)(=O)Nc3ccc(C)c(F)c3)c(Br)cc2N(C)C1=O (stereo not drawn) [BC19924] |
| < 100 | 1000 to 10000 |  |  | CCC1Oc2c(cc(Br)cc2S(=O)(=O)Nc2ccc(F)c(F)c2)N(C)C1=O (stereo not drawn) [BC19925] |
| < 100 | > 10000 |  |  | CCC1Oc2cc(S(=O)(=O)Nc3ccc(F)c(F)c3)c(Br)cc2N(C)C1=O (stereo not drawn) [BC19926] |
| < 100 | 1000 to 10000 |  |  | CCC1Oc2c(cc(Br)cc2S(=O)(=O)Nc2ccccc2)N(C)C1=O (stereo not drawn) [BC19927] |
| 100 to 1000 | 1000 to 10000 |  |  | CCC1Oc2cc(S(=O)(=O)Nc3ccccc3)c(Br)cc2N(C)C1=O (stereo not drawn) [BC19928] |
| < 100 | 1000 to 10000 |  |  | CCC1Oc2c(cc(Br)cc2S(=O)(=O)Nc2ccc(Cl)cc2)N(C)C1=O (stereo not drawn) [BC19929] |
| 100 to 1000 | > 10000 |  |  | CCC1Oc2cc(S(=O)(=O)Nc3ccc(Cl)cc3)c(Br)cc2N(C)C1=O (stereo not drawn) [BC19930] |
| < 100 | 1000 to 10000 |  |  | CCc1ccc(NS(=O)(=O)c2cc(Br)cc3c2OC(CC)C(=O)N3C)cc1 (stereo not drawn) [BC19931] |
| < 100 | 1000 to 10000 |  |  | CCc1ccc(NS(=O)(=O)c2cc3c(cc2Br)N(C)C(=O)C(CC)O3)cc1 (stereo not drawn) [BC19932] |
| < 100 | 1000 to 10000 |  |  | CCC1Oc2c(cc(Br)cc2S(=O)(=O)Nc2ccc(C(C)C)cc2)N(C)C1=O (stereo not drawn) [BC19933] |
| 100 to 1000 | 1000 to 10000 |  |  | CCC1Oc2cc(S(=O)(=O)Nc3ccc(C(C)C)cc3)c(Br)cc2N(C)C1=O (stereo not drawn) [BC19934] |
| < 100 | 1000 to 10000 |  |  | CCC1Oc2c(cc(Br)cc2S(=O)(=O)Nc2ccc(OC)cc2)N(C)C1=O (stereo not drawn) [BC19935] |
| < 100 | > 10000 |  |  | CCC1Oc2cc(S(=O)(=O)Nc3ccc(OC)cc3)c(Br)cc2N(C)C1=O (stereo not drawn) [BC19936] |
| < 100 | 1000 to 10000 |  |  | CCC1Oc2c(cc(Br)cc2S(=O)(=O)Nc2ccc(C)c(Cl)c2)N(C)C1=O (stereo not drawn) [BC19937] |
| 100 to 1000 | 1000 to 10000 |  |  | CCC1Oc2cc(S(=O)(=O)Nc3ccc(C)c(Cl)c3)c(Br)cc2N(C)C1=O (stereo not drawn) [BC19938] |
| 1000 to 10000 | > 10000 |  |  | COc1ccc2[nH]cc(S(=O)(=O)c3ccc(F)c(F)c3)c(=O)c2n1 [BC 19203] |
| > 10000 | > 10000 |  |  | O=S(=O)(c1ccc(Br)cc1)c1cnccc1O [BC 19460] |
